Measurements taken from US5665760A, “Lyophilized thioxanthenone antitumor agents” (priority 1995, dated 1997).
Where “and” joins values, the source holds several entries; their conditions need not be identical. Equal entries are not always repeated.

Tests used:
colon adenocarcinoma #38 = assay: antitumor activity in mice against colon adenocarcinoma #38; assay type: in vivo
Experimental: (§1) Representative examples of the invention were tested for antitumor activity in mice according to the following procedure:
(§2) The animals were pooled, implanted subcutaneously with 30 to 60 mg tumor fragments by 12-gauge trocar, and again pooled before unselective distribution to the various treatment and control groups. For early-stage treatment, chemotherapy was started within 1 to 5 days after tumor implantation while the number of cells was relatively small (10^7 to 10^8 cells). For advanced-stage treatment, chemotherapy was delayed until the tumor became relatively large (200 to 300 mg in size). A 300-mg tumor contains approximately 3×10^8 total cells. […] Tumors were measured with a caliper weekly (or twice weekly for the more rapidly growing tumors). Mice were sacrificed when their tumors reached 1500 mg (i.e., before they can cause the animal discomfort). Tumor weights were estimated from two-dimensional measurements.
(§3) The treatment and control groups were measured when the control group tumors reached approximately 700 to 1200 mg in size (Median of Group). The median tumor weight of each group was determined (including zeros). […] A T/C value <10% is considered to indicate highly significant antitumor activity.
(§4) The results are shown in Table I for pancreatic ductal adenocarcinoma #03 and in Table 2 for colon adenocarcinoma #38.

Mammary 16/C/Adr = assay: antitumor activity in mice against Mammary 16/C/Adr (adriamycin resistant); assay type: in vivo; details: mouse, in vivo
Experimental: as §1
(§5) The animals were pooled, implanted subcutaneously with 30 to 60 mg tumor fragments by 12-gauge trocar, and again pooled before unselective distribution to the various treatment and control groups. For early-stage treatment, chemotherapy was started within 1 to 5 days after tumor implantation while the number of cells was relatively small (10^7 to 10^8 cells). For advanced-stage treatment, chemotherapy was delayed until the tumor became relatively large (200 to 300 mg in size). A 300-mg tumor contains approximately 3×10^8 total cells. Tumors within a given advanced-stage trial were within a 2.5-fold size range for 90% of the animals. Tumors were measured with a caliper weekly (or twice weekly for the more rapidly growing tumors). Mice were sacrificed when their tumors reached 1500 mg (i.e., before they can cause the animal discomfort). Tumor weights were estimated from two-dimensional measurements.
(§6) The treatment and control groups were measured when the control group tumors reached approximately 700 to 1200 mg in size (Median of Group). The median tumor weight of each group was determined (including zeros). The T/C value (weight of treated tumors over the weight of control tumors) in percent is an indication of antitumor effectiveness: A T/C equal to or less than 42% is considered significant antitumor activity by the Drug Evaluation Branch of the Division of Cancer Treatment (NCl). A T/C value <10% is considered to indicate highly significant antitumor activity. A body weight loss nadir (mean of group) of greater than 20% or greater than 20% drug-deaths is considered to indicate an excessively toxic dosage.

Colon 51/A = assay: antitumor activity in mice against Colon 51/A; assay type: in vivo; details: p.o. days 3-7
Experimental: as §1, §2, §3

[1] = system: pancreatic ductal adenocarcinoma #03; assay: antitumor activity in mice against pancreatic ductal adenocarcinoma #03 (Panc 03); assay type: in vivo
Experimental: as §1, §2, §3, §4

Mammary 16/C = assay: antitumor activity in mice against Mammary 16/C; assay type: in vivo; details: i.v. days 1-4 (some changed to p.o.)
Experimental: as §1, §2, §3

Human MX-1 Mammary = assay: antitumor activity in mice against Human MX-1 Mammary; assay type: in vivo; details: i.v. days 1-6 (some changed to p.o.)
Experimental: as §1, §5, §6

[2] = excipient alone; cited from earlier work
[3] = 155 mg/kg total, i.v. days 3-6 (some changed to p.o.)
[4] = 240 mg/kg total, i.v. days 3-6 (some changed to p.o.)
[5] = 420 mg/kg total, i.v. days 3-6 (some changed to p.o.)
[6] = 147 mg/kg total, i.v. days 3-7 (some changed to p.o.)
[7] = 220 mg/kg total, i.v. days 3-7 (some changed to p.o.)
[8] = 330 mg/kg total, i.v. days 3-7 (some changed to p.o.)

CCN(CC)CCNc1ccc(CN(C)S(C)(=O)=O)c2sc3ccccc3c(=O)c12 [Example 8(a), N-[[1-[[2-(Diethylamino)ethyl)amino]-9-oxothioxanthen-yl]methyl]N-methylmethanesulfonamide]
T/C Value (colon adenocarcinoma #38; 112 mg/kg total, i.p. days 3-10): 3% | T/C Value (colon adenocarcinoma #38; 196 mg/kg total, i.p. days 3-10): 0% | T/C Value (colon adenocarcinoma #38; 275 mg/kg total, p.o. days 3-7): 0% | T/C Value (colon adenocarcinoma #38; 340 mg/kg total, i.p. days 3-10): 0% | T/C Value (colon adenocarcinoma #38; 550 mg/kg total, p.o. days 3-7): 0% | Drug Deaths (colon adenocarcinoma #38; mouse, in vivo): 0 | Drug Deaths (Mammary 16/C/Adr): 5/6 and 3/6 and 0/4 | T/C Value (Colon 51/A; 250 mg/kg total): 16% | Wt. Loss at Nadir (Colon 51/A; 250 mg/kg total): -1.6 g/mouse | T/C Value (Colon 51/A; 500 mg/kg total): 0% | Wt. Loss at Nadir (Colon 51/A; 500 mg/kg total): -4.6 g/mouse

CCN(CC)CCNc1ccc(CNC(=O)OC)c2sc3ccc(OC)cc3c(=O)c12 [Example 36]
Drug Deaths [1, 3]: 0 | T/C Value [1, 3]: 0% | Wt. Loss at Nadir [1, 3]: -0.4 g/mouse | Drug Deaths [1, 4]: 0 | T/C Value [1, 4]: 0% | Wt. Loss at Nadir [1, 4]: -0.4 g/mouse | Drug Deaths [1, 5]: 3/5 | T/C Value [1, 5]: 0% | Wt. Loss at Nadir [1, 5]: -5.6 g/mouse | Weight Loss ([1]; Table 1, average body weight 25 g, total doses as in E1): 0.4 g | Drug Deaths ([1]; Table 1, total doses as in E1): 0 | Drug Deaths (colon adenocarcinoma #38; [6]): 0 | T/C Value (colon adenocarcinoma #38; [6]): 0% | Wt. Loss at Nadir (colon adenocarcinoma #38; [6]): 0 g/mouse | Drug Deaths (colon adenocarcinoma #38; [7]): 0 | T/C Value (colon adenocarcinoma #38; [7]): 0% | Wt. Loss at Nadir (colon adenocarcinoma #38; [7]): -0.8 g/mouse | Drug Deaths (colon adenocarcinoma #38; [8]): 0 | T/C Value (colon adenocarcinoma #38; [8]): 0% | Wt. Loss at Nadir (colon adenocarcinoma #38; [8]): -3.2 g/mouse | Drug Deaths (Mammary 16/C; 161 mg/kg total): 0 | T/C Value (Mammary 16/C; 161 mg/kg total): 9% | Wt. Loss at Nadir (Mammary 16/C; 161 mg/kg total): -0.4 g/mouse | Drug Deaths (Mammary 16/C; 242 mg/kg total): 1/5 | T/C Value (Mammary 16/C; 242 mg/kg total): 8% | Wt. Loss at Nadir (Mammary 16/C; 242 mg/kg total): -1.2 g/mouse | Drug Deaths (Mammary 16/C; 363 mg/kg total): 2/5 | T/C Value (Mammary 16/C; 363 mg/kg total): 2% | Wt. Loss at Nadir (Mammary 16/C; 363 mg/kg total): -2.4 g/mouse | Drug Deaths (Human MX-1 Mammary; 132 mg/kg total): 0 | T/C Value (Human MX-1 Mammary; 132 mg/kg total): 27% | Wt. Loss at Nadir (Human MX-1 Mammary; 132 mg/kg total): -0.8 g/mouse | Drug Deaths (Human MX-1 Mammary; 297 mg/kg total): 0 | T/C Value (Human MX-1 Mammary; 297 mg/kg total): 39% | Wt. Loss at Nadir (Human MX-1 Mammary; 297 mg/kg total): -2.4 g/mouse

[Cl-].[Na+] [NaCl, sodium chloride]
glass transition temperature of excipient [2]: -87 °C
